# In patent US20110158908A1, “CYCLOSPORIN A-BINDING PROTEIN” (Sapporo Medical University, priority 2007, published 2011):
# Assays:
# [1] = test system: CSABP gene expression in MH14 cells; experiment: Effect of anti-methylating agent on gene expression in MH14 cells (RT-PCR); assay type: cell-based, human; conditions: MH14 cells, 0.1, 0.5, 1.0 μM, 4 days
# Protocol: 10^5 cells/well of MH14 cells (liver cancer cell line) were precultured in a 6 well plate with MH14 cell culture medium for 24 hours, and 5-aza-2′-deoxycytidine (Sigma) was then added thereto. Subsequently, medium exchange was carried out every 24 hours with a medium to which the methylation inhibitor had been added, and the cells were collected after 4 days. The amount of 5-aza-2′-deoxycytidine added was 0, 0.1, 0.5, and 1.0 μM. Total RNA was recovered from the cells thus collected in accordance with a standard method using an RNeasy kit (Qiagen, Cat. 74104). This total RNA was subjected to a reverse transcription reaction in accordance with a standard method using a Transcriptor First Strand cDNA Synthesis Kit (Roche, Cat. 04379012001), and the cDNA thus obtained was used as a template. The primer employed the above-mentioned CSABP primer (SEQ ID Nos: 5 and 6), and a PCR reaction was carried out in a Gotaq® PCR system (Promega) at 95° C., 5 minutes×1 cycle, 95° C., 0.5 minutes, 55° C., 0.5 minutes, 72° C., 2.5 minutes×35 cycles, 72° C., 7 minutes×1 cycle. As a positive control, a reaction was carried out in the same manner using the RASSF1A primers RASSF1A transcript variant D 391 to 415 forward primer: 5′-[…]-3′ (SEQ ID No: 38) and RASSF1A transcript variant D 635 to 660 reverse primer: 5′-[…]-3′ (SEQ ID No: 39), which is a gene for which a relationship between expression and DNA methylation in a promoter region has been shown by Cui X et al., Hum Pathol. 2006; 37 (3): 298-311. As an internal control, a reaction was carried out in the same manner using the above-mentioned G6PDH primer (SEQ ID Nos: 20 and 21).
# [2] = target: T1, recombinant full length CSABP protein (CSABP-FL) (Homo sapiens, UniProt Q9H6S0, S652N/T565S); experiment: Molecular association with CSABP by SPR (Biacore 3000); assay type: binding; conditions: read-out: dissociation constant KD with CSABP
# T1 construct: pET-CSABP-FL and pET-CSABP-C (FL=full length, C=C terminal region (CSABP ORF: 193rd to 1430th amino acids)); made in house; host or cells: E. coli BL21 (DE3)
# T1 sequence (Q9H6S0 1-1430 T565S/S652N): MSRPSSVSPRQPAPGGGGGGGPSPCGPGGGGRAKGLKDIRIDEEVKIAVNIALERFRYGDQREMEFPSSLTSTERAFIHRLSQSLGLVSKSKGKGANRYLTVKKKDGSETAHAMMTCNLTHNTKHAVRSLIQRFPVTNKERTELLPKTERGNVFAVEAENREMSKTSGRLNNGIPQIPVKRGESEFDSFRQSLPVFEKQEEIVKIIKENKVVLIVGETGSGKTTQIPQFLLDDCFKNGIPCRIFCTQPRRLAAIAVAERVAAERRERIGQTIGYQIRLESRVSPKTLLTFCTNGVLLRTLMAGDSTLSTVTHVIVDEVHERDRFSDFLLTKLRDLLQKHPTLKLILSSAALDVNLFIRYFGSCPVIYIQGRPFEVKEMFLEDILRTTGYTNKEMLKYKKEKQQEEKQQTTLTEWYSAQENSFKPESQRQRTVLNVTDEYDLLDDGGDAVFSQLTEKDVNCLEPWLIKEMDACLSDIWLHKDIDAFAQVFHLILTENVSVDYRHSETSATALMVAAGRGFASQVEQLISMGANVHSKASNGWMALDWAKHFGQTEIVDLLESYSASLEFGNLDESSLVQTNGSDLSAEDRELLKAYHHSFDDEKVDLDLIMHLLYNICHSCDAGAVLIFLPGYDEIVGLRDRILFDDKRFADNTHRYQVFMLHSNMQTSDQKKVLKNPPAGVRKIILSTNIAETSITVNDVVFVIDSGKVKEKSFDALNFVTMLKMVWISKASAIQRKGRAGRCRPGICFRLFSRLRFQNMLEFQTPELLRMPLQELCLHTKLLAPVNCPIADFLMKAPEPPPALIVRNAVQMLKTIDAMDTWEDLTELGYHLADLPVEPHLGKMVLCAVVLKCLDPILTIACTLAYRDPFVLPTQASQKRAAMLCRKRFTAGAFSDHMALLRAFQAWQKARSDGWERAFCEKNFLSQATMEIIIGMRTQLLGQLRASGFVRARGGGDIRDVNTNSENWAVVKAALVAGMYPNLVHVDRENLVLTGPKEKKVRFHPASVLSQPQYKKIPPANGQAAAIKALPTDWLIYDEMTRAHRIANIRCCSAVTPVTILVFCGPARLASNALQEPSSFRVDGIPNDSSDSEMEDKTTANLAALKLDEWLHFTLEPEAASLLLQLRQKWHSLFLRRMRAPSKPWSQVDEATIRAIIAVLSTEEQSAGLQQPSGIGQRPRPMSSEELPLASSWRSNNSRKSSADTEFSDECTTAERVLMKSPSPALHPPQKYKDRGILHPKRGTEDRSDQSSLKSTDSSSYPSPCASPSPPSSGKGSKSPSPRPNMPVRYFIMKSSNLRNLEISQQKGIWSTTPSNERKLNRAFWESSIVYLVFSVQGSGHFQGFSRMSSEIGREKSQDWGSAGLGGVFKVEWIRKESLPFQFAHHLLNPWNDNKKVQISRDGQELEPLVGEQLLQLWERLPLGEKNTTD
# Protocol: Molecular association between recombinant full length CSABP protein (CSABP-FL) and CsA was evaluated by an SPR (surface plasmon resonance) method. SPR measurement employed Biacore 3000 (Biacore). A purified recombinant CSABP protein was immobilized on Biacore chip CM5 by an amine coupling method (amount immobilized about 10000).
# [3] = test system: CSABP expression in normal human liver cells; experiment: Induction of CSABP expression by inflammatory cytokine in normal human liver cells (real time PCR); assay type: cell-based; conditions: 8 hours
# Protocol: Normal human liver cells (Primary Human Liver Hepatocyte Cells, DS PHARMA BIOMEDICAL CO., LTD., Cat. No. ABI-3716) were cultured in a 6 well plate at a density of 2×10^5 cells/well, and human IL-1β, TNFα, or IL-6 (all from BioSource) was added thereto to give a final concentration in the well of 1 pg/mL, 100 pg/mL, or 1 ng/mL respectively. 8 hours after the addition, the cells were collected, and expression of CSABP within the cells was quantitatively determined by real time PCR in the same manner as in Example 5 (2).
molecule,measurement,setting,value
Nc1ncn([C@H]2C[C@H](O)[C@@H](CO)O2)c(=O)n1 [5-aza-2′-deoxycytidine],amount of expression of the CSABP gene,[1],increase
same,cytotoxicity,[1],no cytotoxicity was observed
same,expression of RASSF1A (positive control gene),[1],increased
C=CC[C@@H]1/C=C(\C)C[C@H](C)C[C@H](OC)[C@H]2O[C@@](O)(C(=O)C(=O)N3CCCC[C@H]3C(=O)O[C@H](/C(C)=C/[C@@H]3CC[C@@H](O)[C@H](OC)C3)[C@H](C)[C@@H](O)CC1=O)[C@H](C)C[C@@H]2OC [FK506],Kd,[2],2500 nM
IL-1β: human inflammatory cytokine (BioSource),amount of expression of CSABP compared with the control,[3]; 1 pg/mL,some increase
IL-6: human inflammatory cytokine (BioSource),amount of expression of CSABP compared with the control,[3]; 1 ng/mL,some increase
TNF-α,amount of expression of CSABP compared with the control,[3]; 100 pg/mL,about 1.8 times
